Source: patent publication US20190030009A1, “COMPOUNDS AND COMPOSITIONS FOR THE TREATMENT OF CRYPTOSPORIDIOSIS” (Novartis AG, priority 2016, published 2019)

How the values were obtained:
[1] = Cytotoxicity against HepG2; type: cell-based; details: human, HepG2 cells (ATCC HB-8065), 5 days exposure
Method: Cytotoxicity against HepG2 (ATCC# HB-8065), a human liver cancer cell line, was determined as previously described earlier (Manjunatha et al., 2015). Briefly, cells were seeded at a density of 10^5 cells per well, incubated at 37° C. for 24 h and exposed to two-fold serially-diluted compounds for 5 days. Cell viability was monitored using the Cell Proliferation Kit II (Invitrogen). The cytotoxicity values of selected compounds are reported in the fifth column [HepG2 CC50 (μM)] of Table II.

Cryptosporidium parvum = assay: Cytopathic effect (CPE) based assay, C. parvum infected HCT-8 cells; details: HCT-8 host cell viability (CellTiter-Glo), 48 hours treatment, read-out: Cp CPE EC50
Method: Human ileocecal colorectal adenocarcinoma cells (HCT-8 [HRT-18] ATCC, CCL-34) were maintained in T-175 flasks (Corning, 431080) in complete growth medium (RPMI-1640 medium (Gibco, 11875) supplemented with 10% heat-inactivated horse serum (Gibco, 26050), 1×MEM non-essential amino acids (Gibco, 11140), 10 mM HEPES (Gibco, 15630), 100 units/mL penicillin, and 100 units/mL streptomycin) at 37° C. and 5% CO2 in a humidified incubator. Cultures were passaged twice weekly using 10 mL of 1×Phosphate-Buffered Saline (PBS) without Ca^2+ and Mg^2+ (Gibco, 20012) for washing and 3-5 mL per T-175 flask of TrypLE Express Enzyme (Gibco, 12604) for dissociation of adherent cells.
Cryptosporidium parvum oocysts purchased from the Sterling Laboratory, University of Arizona (Iowa isolate) were purified from infected calf feces using discontinuous sucrose and cesium chloride centrifugation gradients and stored in PBS solution containing 0.01% Tween 20, 100 units/mL penicillin and 100 units/mL gentamicin.
Excystation and infection protocols were developed following established methods with some modifications (Gut & Nelson, 1999, Upton et aL, 1995, Bessoff et aL, 2013). Briefly, oocysts were primed in 1 mL of 10 mM hydrochloric acid in 1× Hank's Balanced Salt Solution (HBSS) (Gibco, 14025) for 10 minutes with agitation at 1000 rpm, 37° C. on an Eppendorf thermomixer, then washed twice with 1 mL of room temperature non-acidic 1× HBSS by centrifugation at 13,000 rpm for 3 minutes at 25° C. Primed oocysts were further excysted at a concentration of 1×10^6 oocysts/μL in parasite infection medium consisting of a pre-warmed and pre-gassed 1:1 formulation of Leibovitz's L-15 medium (Gibco, 11415) and UltraCULTURE medium (Lonza, 12-725F) supplemented with 2 mM sodium taurocholate (Sigma, 86339-1), 10% heat-inactivated horse serum, and 200 μM L-ascorbic acid (Sigma, 95210) at 25° C. for 10 minutes. HCT-8 monolayer cells were infected with excysted cryptosporidium at a specified multiplicity of infection (MOI). All dilutions for subsequent assays were performed in parasite infection medium without sodium taurocholate. Pre-excysted oocysts were enumerated microscopically using a C-Chip disposable hemocytometer (NanoEnTek, DHC-N01).
Compound powders were dissolved in neat DMSO (Fisher, D4121) to 10 mM and stored at 4° C. prior to dilution into source plates. Dilutions were carried out using a Microlab STAR liquid handler (Hamilton) to obtain compound source plates containing the ten-point or eight-point three fold dilutions starting from 10 mM in duplicates. Source plates were stored at 4° C. prior to spotting into assay plates. Before administration, all compound source plates were equilibrated to room temperature. A specified volume of compounds from source plate were spotted to assay plate using an Echo Acoustic liquid handler (LABCYTE, 550) so that the final DMSO concentration was less than 0.5%. Each assay plate a specified number of DMSO-treated negative control wells and a well-studied potent active compound at 100 nM as positive control. As a quality control, all positive and negative-control wells were used to calculate a Z′-value and signal to noise ratio (S:N) for each plate.
Cryptosporidium spp are obligate-intracellular parasites that infect intestinal epithelial cells and the host cell is killed upon parasite egress. […] The loss of epithelial cells is due to both rapid parasite invasion/multiplication/egress and also pro-inflammatory immune response (Adams et al., 1994, Griffiths et al., 1994). We have observed a consistent cytopathic effect (CPE) in HCT-8 cells with C. spp infection the loss of viability of the host cells using CellTiter-Glo reagent.
Confluent HCT-8 cells in T-175 flasks were directly infected with excysted oocysts at an MOI (host to parasite) of 1:2 for C. parvum and 1:4 for C. hominis. The number of host-cells is determined using a NucleoCounter (Chemometec, NC-100) in a control flask. […]

| SMILES | CC50 at 5 days [1] [µM] | EC50 (Cryptosporidium parvum) [µM] |
| --- | --- | --- |
| CNC(=O)c1ccc(-c2cnn3ccc(C(=O)N(c4ccc(C#N)cn4)C4CC4)cc23)nc1 [Example 133] | 20.9 | 2.18 |
| CN(C(=O)c1ccn2ncc(-c3cnc(Cl)c(N)c3)c2c1)c1ccc(C#N)cn1 [Example 98] | 10.2 | 2.21 |
| CNC(=O)c1ccc(-c2cnn3ccc(C(=O)N(c4ccc(Cl)cc4)C4CC4)cc23)cc1 [Example 116] | 3.01 | 0.007 |
| CNC(=O)c1ccc(-c2cnn3ccc(C(=O)N(c4ccc(C#N)cn4)C4CCC4)cc23)cn1 [Example 144] | 7.69 | 1.79 |
| N#Cc1ccc(N(CCO)C(=O)c2ccn3ncc(-c4ccc(C(N)=O)cc4)c3c2)cc1 [Example 105] | > 50 | > 20 |
| CN(C(=O)c1ccn2ncc(-c3ccnc(N)c3)c2c1)c1ccc(C#N)cn1 [Example 108] | 14.2 | 4.94 |
| CCN(C(=O)c1ccn2ncc(-c3ccc(C(=O)NC)nc3)c2c1)c1ccc(F)cn1 [Example 159] | 9.81 | 5.37 |
| CN(C(=O)c1ccc(C#N)cc1)c1ccn2ncc(-c3ccc(C(F)(F)F)cc3)c2c1 [Example 28] | 9.9 | 2.82 |
| CCN(C(=O)c1ccn2ncc(-c3ccc(S(C)(=O)=O)cc3)c2c1)c1ccc(C#N)cn1 [Example 158] | 23 | 3.75 |
| CNC(=O)c1ccc(-c2cnn3ccc(C(=O)N(c4ccc(C#N)cn4)C4CC4)cc23)cc1 [Example 93] | 28.1 | 0.152 |
| CN(C(=O)c1ccn2ncc(-c3ccc(C(N)=O)cc3)c2c1)c1ccc(Cl)cc1 [Example 100] | 13.3 | 0.021 |
| CNC(=O)c1ccc(-c2cnn3ccc(C(=O)N(c4ccc(F)cn4)C4CC4)cc23)cc1 [Example 125] | 25.5 | 0.709 |
| CNC(=O)c1ccc(-c2cnn3ccc(C(=O)N(c4ccc(C#N)cc4)C4CCC4)cc23)cn1 [Example 145] | 16.8 | 0.417 |
| CNC(=O)c1ccc(-c2cnn3ccc(C(=O)N(C)c4ccc(Cl)cc4)cc23)cn1 [Example 109] | 16.9 | 0.129 |
| CNCCNC(=O)c1ccc(-c2cnn3ccc(C(=O)N(C)c4ccc(C#N)cn4)cc23)cc1 [Example 114] | 5.52 | 9.13 |
| CN(C(=O)c1ccn2ncc(-c3ccc(C(F)(F)F)cc3)c2c1)c1ccc(C#N)cn1 [Example 13] | > 50 | 1.54 |
| CN(C(=O)c1ccn2ncc(-c3cnc(N)c(C#N)c3)c2c1)c1ccc(C#N)cn1 [Example 85] | 30.4 | 0.639 |
| CN(C(=O)c1ccn2ncc(-c3ccc(C(N)=O)cc3)c2c1)c1ccc(F)cc1 [Example 20] | 5.42 | 0.105 |
| CNC(=O)c1ccc(-c2cnn3ccc(C(=O)N(c4ccc(Cl)cc4)C4CC4)cc23)cn1 [Example 143] | 17.5 | 0.079 |
| Cc1ccc(N(C)C(C)c2ccn3ncc(-c4ccc(C(N)=O)cc4)c3c2)nc1 (stereo not drawn) [Example 65] | 2.28 | 5.12 |
| CNC(=O)c1ccc(-c2cnn3ccc(C(=O)N(c4ccc(C#N)cn4)C4CCC4)cc23)nc1 [Example 155] | > 50 | 1.01 |
| CNC(=O)c1ccc(-c2cnn3ccc(C(=O)N(c4ccc(C(F)(F)F)cn4)C4CCC4)cc23)cn1 [Example 161] | 1.22 | 0.775 |
| CCN(C(=O)c1ccn2ncc(-c3ccc(C(=O)NC)nc3)c2c1)c1ccc(C(F)(F)F)cn1 [Example 157] | 8.96 | 0.295 |

| SMILES | CC50 at 5 days [1] [µM] | EC50 (Cryptosporidium parvum) [µM] |
| --- | --- | --- |
| CNC(=O)c1ccc(-c2cnn3ccc(C(=O)N(c4ccc(C#N)cc4)C(C)C)cc23)cn1 [Example 146] | 32.1 | 0.329 |
| CN(C(=O)c1ccn2ncc(-c3ccc(C(=O)NC4CCNCC4)cc3)c2c1)c1ccc(C#N)cn1 [Example 113] | 2.67 | 19.4 |
| N#Cc1ccc(N(C(=O)c2ccn3ncc(-c4ccc(C(N)=O)cn4)c3c2)C2CC2)nc1 [Example 139] | 16.7 | 2.07 |
| CNC(=O)c1ccc(-c2cnn3ccc(C(=O)N(c4ccc(F)cn4)C(C)C)cc23)cc1 [Example 151] | 29.2 | 2.31 |
| CNC(=O)c1ccc(-c2cnn3ccc(C(=O)N(C)c4ccc(C#N)cn4)cc23)cc1 [Example 75] | 19.7 | 0.066 |
| CN(C(=O)c1ccn2ncc(-c3ccc(N)nc3)c2c1)c1ccc(C#N)cc1 [Example 41] | 24.1 | 0.097 |
| CNC(=O)c1ccc(-c2cnn3ccc(N(C(=O)c4ccc(C#N)cn4)C4CC4)cc23)cc1 [Example 147] | 32.7 | > 20 |
| CNC(=O)c1ccc(-c2cnn3ccc(C(=O)N(c4ccc(C#N)cc4)C4CC4)cc23)cn1 [Example 137] | 2.19 | 0.35 |
| CNC(=O)c1ccc(-c2cnn3ccc(C(=O)N(c4ccc(C#N)cn4)C(C)C)cc23)nc1 [Example 154] | 45.7 | 0.964 |
| CNC(=O)c1ccc(-c2cnn3ccc(C(=O)N(c4ccc(C#N)cn4)C(C)C)cc23)cn1 [Example 148] | 20.1 | 1.86 |
| CNC(=O)c1ccc(-c2cnn3ccc(C(=O)N(c4ccc(C#N)cc4)C4CC4)cc23)nc1 [Example 141] | 20.8 | 0.344 |
| CNC(=O)c1ccc(-c2cnn3ccc(C(=O)N(c4ccc(C#N)cc4)C4CC4)cc23)cc1 [Example 118] | 5.9 | 0.026 |
| CNC(=O)c1ccc(-c2cnn3ccc(C(=O)N(C)c4ccc(OC)nc4)cc23)cc1 [Example 122] | 15.8 | > 20 |
| CNC(=O)c1ccc(-c2cnn3ccc(C(=O)N(c4ccc(C(=O)O)cn4)C4CC4)cc23)cc1 [Example 128] | > 50 | > 20 |
| CNC(=O)c1ccc(-c2cnn3ccc(C(=O)N(C)c4ccc(Cl)cc4)cc23)cc1 [Example 99] | 6.51 | 0.018 |
| CN(C(=O)c1ccn2ncc(-c3ccc(C(=O)NCCN)cc3)c2c1)c1ccc(C#N)cn1 [Example 104] | > 50 | 3.61 |
| CN(C(=O)c1ccn2ncc(-c3cnc(N)nc3)c2c1)c1ccc(C#N)cc1 [Example 83] | > 50 | 0.487 |
| CC1COc2cc(F)ccc2N1C(=O)c1ccn2ncc(-c3ccc(C(N)=O)cc3)c2c1 (stereo not drawn) [Example 72] | 5.42 | 1.4 |
| CCN(C(=O)c1ccn2ncc(-c3ccc(C(=O)NC)cc3)c2c1)c1ccc(F)cn1 [Example 95] | 13 | 0.63 |
| CNC(=O)c1ccc(-c2cnn3ccc(C(=O)Nc4ccc(C#N)cn4)cc23)cc1 [Example 106] | > 50 | > 20 |
| CNC(=O)c1ccc(-c2cnn3ccc(S(=O)(=O)N(C)c4ccc(C#N)cn4)cc23)cc1 [Example 163] | 8.48 | 0.197 |
| CNC(=O)c1ccc(-c2cnn3ccc(C(=O)N(c4ccc(C(F)(F)F)cn4)C(C)C)cc23)cn1 [Example 152] | 14.9 | 0.456 |
